The CheMixHub ionic liquid set

Test: xn = mol fraction of the nth substance listed

CCCC[n+]1ccn(C)c1.F[B-](F)(F)F + CC(C)O
viscosity [mPa·s], 101 kPa
Settings	293.15 K	298.15 K	303.15 K	308.15 K	313.15 K	318.15 K	323.15 K
x1 = 0.0804	4.9	4.2	3.89	3.46	2.84	2.16	1.48
x1 = 0.1585	7.6	7	6.52	5.78	4.67	3.41	2.15
x1 = 0.2402	11.4	10.3	9.5	8.4	6.8	4.9	3.01
x1 = 0.3505	16	15	14	12.4	9.9	7.1	4.34
x1 = 0.4422	20.7	19.7	18.2	16	12.9	9.3	5.78
x1 = 0.5619	28.4	26.7	24.9	21.9	17.6	12.9	8.3
x1 = 0.6491	36.8	34.3	31.3	27.6	22.2	16.5	10.8
x1 = 0.7409	48.5	44.8	40	34.6	27.9	20.9	14.1
x1 = 0.8458	69	61.6	53.7	45.8	36.8	27.8	19.3
x1 = 0.9327	95	82	70	58.8	47.1	35.9	25.4
x1 = 1	125	105	88	72	57.7	44	31.6

CCCC[n+]1ccn(C)c1.F[B-](F)(F)F + CCC(C)=O
100 kPa, x1 = 1
Settings	viscosity [mPa·s]
303.15 K	85.4
313.15 K	53.84
323.15 K	36.27
333.15 K	25.46

CC[n+]1ccn(C)c1.N#C[N-]C#N + CCC(C)O
viscosity [mPa·s], 100 kPa
Settings	x1 = 0.1023	x1 = 0.2005	x1 = 0.3015	x1 = 0.4018	x1 = 0.5032	x1 = 0.6026	x1 = 0.7026	x1 = 0.8032	x1 = 0.9029	x1 = 1
298.15 K	3.05	3.17	3.48	3.86	4.53	5.4	6.7	8.3	10.3	13.1
303.15 K	2.59	2.71	3.02	3.41	4.07	4.95	6.1	7.5	9.6	11.8
308.15 K	2.25	2.37	2.68	3.06	3.72	4.63	5.6	7	8.9	10.9
313.15 K	2.01	2.13	2.41	2.69	3.36	4.19	5.1	6.4	7.8	9
318.15 K	1.83	1.95	2.26	2.54	3.06	3.79	4.59	5.8	6.9	8.1
323.15 K	1.67	1.79	2.05	2.26	2.83	3.51	4.18	5	6.2	7.3

CCCCCCCCO + CCCCCCCC(=O)[O-].c1c[nH+]c[nH]1
Settings	viscosity [mPa·s]
293.15 K, 101.3 kPa, x1 = 1	9.18

O=C(CO)[C@@H](O)[C@H](O)[C@@H](O)CO + CCCCCCCCCCCCCCCC[N+](C)(C)C.[Br-] + O
viscosity [mPa·s], 100 kPa
Settings	298.15 K	308.15 K	318.15 K
x2 = 7.19e-06, x1 = 0.002005	0.946	0.782	0.65
x2 = 7.19e-06, x1 = 0.002298	0.954	0.788	0.655
x2 = 7.19e-06, x1 = 0.002748	0.965	0.797	0.662
x2 = 7.2e-06, x1 = 0.0007582	0.915	0.757	0.629
x2 = 7.2e-06, x1 = 0.001199	0.926	0.766	0.637
x2 = 7.2e-06, x1 = 0.001449	0.932	0.771	–
x2 = 1.438e-05, x1 = 0.00232	0.96	0.793	0.658
x2 = 1.438e-05, x1 = 0.002732	0.971	0.802	0.665
x2 = 1.439e-05, x1 = 0.00146	0.937	–	–
x2 = 1.439e-05, x1 = 0.001979	0.951	0.786	0.652
x2 = 1.44e-05, x1 = 0.0008896	0.922	0.763	0.633
x2 = 1.44e-05, x1 = 0.001296	0.933	0.771	0.64
x2 = 2.156e-05, x1 = 0.002717	0.975	0.805	0.667
x2 = 2.157e-05, x1 = 0.002351	0.965	0.797	0.66
x2 = 2.158e-05, x1 = 0.001965	0.954	0.789	0.653
x2 = 2.159e-05, x1 = 0.001383	0.938	0.776	0.642
x2 = 2.159e-05, x1 = 0.001661	0.946	0.782	0.647
x2 = 2.16e-05, x1 = 0.001025	0.928	0.768	0.636
